The values that follow come from the supplement of paper PMC10307832.

Common to all, as to assay: relative viability (nuclei count vs DMSO), 5 days (fraction); higher = more cells survive
Compound in assay [1]: COc1cc2nc(N3CCCN(C)CC3)nc(NC3CCN(Cc4ccccc4)CC3)c2cc1OC + C[C@]1(O)C[C@@H](c2nc(-c3ccc4ccc(-c5ccccc5)nc4c3)c3c(N)nccn32)C1 [Linsitinib] (partner 1 µM)
In outline: (§1)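 For relative viability, nuclei counts in treated wells were divided by those in vehicle wells. Lung cancer cell lines had been pin-tool dosed in 1536-well plates the day after seeding and cultured for 5 days, then fixed and stained in one step (final 0.05% Triton X-100, 1% formaldehyde, 1 ug/ml Hoechst) and imaged at 4×. Doses were one drug alone or a fixed anchor-drug dose plus five library-drug doses (not always all listed) in √10 steps, and values are duplicate-plate medians.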

Compound in the assay “AZD6482 + Phenformin”: Cc1cc([C@@H](C)Nc2ccccc2C(=O)O)c2nc(N3CCOCC3)cc(=O)n2c1 [AZD6482] + N=C(N)NC(=N)NCCc1ccccc1 [Phenformin] (partner 250 µM)
Put shortly: as §1

Compound in assay [2]: COc1cc2nc(N3CCCN(C)CC3)nc(NC3CCN(Cc4ccccc4)CC3)c2cc1OC + O=C(c1cc(Cc2n[nH]c(=O)c3ccccc23)ccc1F)N1CCN(C(=O)C2CC2)CC1 [Olaparib] (partner 8 µM)
In outline:
as §1

Compound in assay [3]: COc1cc2nc(N3CCCN(C)CC3)nc(NC3CCN(Cc4ccccc4)CC3)c2cc1OC + CC(=O)Nc1cccc(-n2c(=O)n(C3CC3)c(=O)c3c(Nc4ccc(I)cc4F)n(C)c(=O)c(C)c32)c1 [Trametinib] (partner 0.02 µM)
In outline:
as §1

UMC-11: the relative viability in assay [1] (first compound 0.2 µM) was determined as 1.03; in assay [1] (first compound 0.6325 µM), 1.03; in assay [1] (first compound 2 µM) it was 1.05; in assay [1] (first compound 6.325 µM), 1.04; with AZD6482 + Phenformin (first compound 0.08 µM), 0.309; with AZD6482 + Phenformin (first compound 0.253 µM), 0.292. The relative viability turned out to be 0.324 with AZD6482 + Phenformin (first compound 0.8 µM); 0.293 with AZD6482 + Phenformin (first compound 2.53 µM); 0.255 in the assay with AZD6482 + Phenformin (first compound 8 µM); 0.38 in assay [2] (first compound 0.2 µM); 0.391 in assay [2] (first compound 0.6325 µM); 0.385 in assay [2] (first compound 2 µM). For the same cell line, the relative viability in assay [2] (first compound 6.325 µM) stood at 0.221; in assay [3] (first compound 0.2 µM) it was 0.741; in assay [3] (first compound 0.6325 µM), 0.729; in assay [3] (first compound 2 µM), 0.836; in assay [3] (first compound 6.325 µM), 0.517.
